US5852014A, “Condensed indole derivatives as 5HT4 -receptor antagonists” (SmithKline Beecham p.l.c., priority 1992, dated 1998)
Like-named read-outs stand apart in the source and are kept apart here.

Columns and labels:
[1] = biological target: piglet hippocampal 5-HT4 receptors (Sus scrofa, UniProt Q6Q253); assay: Binding to piglet hippocampal 5-HT4 receptors (125I-SB-207710); conditions: for pKi: inhibition of 125I-SB-207710 binding in hippocampus
[2] = tested on: large bowel motility and fluid secretion; assay: Faecal pellet output and fluid content in conscious fed mice (normal and 5-HTP-treated); assay type: in vivo, mouse
From the text: 2) Antagonism in Conscious Fed Mice
A model was developed to examine the effect of 5-HT4 receptor antagonists on large bowel motility (faecal pellet output, FPO) and fluid secretion (pellet wet/dry weight) during `fed` conditions. The antagonists are studied in normal mice (to determine adverse effects, eg constipation)and in mice with functional diarrhoea caused by 5-HTP [Banner S E, Smith M I, Bywater D and Sanger G J (1993), Br J Pharmacol, 110, 17 P, and Banner S E, Smith M I and Sanger G J (1993) Br J Pharmacol; 110, 135 P]. Faecal pellets were collected at 10 min intervals so that their number and wet/dry weights could be determined.

5-HT4 receptor [3] = biological target: T1, 5-HT4 receptor (Cavia porcellus, UniProt O70528); assay: Guinea pig colon: 5-HT-evoked contraction of longitudinal muscle-myenteric plexus preparations
T1 sequence (O70528 whole entry): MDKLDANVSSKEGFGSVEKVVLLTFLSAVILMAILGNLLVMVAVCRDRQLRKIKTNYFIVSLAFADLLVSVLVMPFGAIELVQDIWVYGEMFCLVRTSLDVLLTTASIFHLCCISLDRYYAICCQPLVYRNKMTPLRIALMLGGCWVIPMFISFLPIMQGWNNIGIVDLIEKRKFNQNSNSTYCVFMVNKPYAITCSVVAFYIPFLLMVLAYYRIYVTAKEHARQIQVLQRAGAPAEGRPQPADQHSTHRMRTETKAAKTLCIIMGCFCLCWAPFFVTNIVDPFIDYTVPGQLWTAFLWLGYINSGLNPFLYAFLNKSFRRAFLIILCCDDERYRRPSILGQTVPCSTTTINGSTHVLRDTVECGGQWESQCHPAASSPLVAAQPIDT
Description: (§1) In some experiments, this tissue was dosed alternately with an approximately equi-effective concentration of the nicotine receptor stimulant, dimethylphenylpiperazinium (DMPP).

5-HT4 receptor [4] = biological target: 5-HT4 receptor (Sus scrofa, UniProt Q6Q253); assay: Piglet atria spontaneous beating screen
Chain of 5-HT4 receptor (Sus scrofa, UniProt Q6Q253) (Q6Q253 1-402): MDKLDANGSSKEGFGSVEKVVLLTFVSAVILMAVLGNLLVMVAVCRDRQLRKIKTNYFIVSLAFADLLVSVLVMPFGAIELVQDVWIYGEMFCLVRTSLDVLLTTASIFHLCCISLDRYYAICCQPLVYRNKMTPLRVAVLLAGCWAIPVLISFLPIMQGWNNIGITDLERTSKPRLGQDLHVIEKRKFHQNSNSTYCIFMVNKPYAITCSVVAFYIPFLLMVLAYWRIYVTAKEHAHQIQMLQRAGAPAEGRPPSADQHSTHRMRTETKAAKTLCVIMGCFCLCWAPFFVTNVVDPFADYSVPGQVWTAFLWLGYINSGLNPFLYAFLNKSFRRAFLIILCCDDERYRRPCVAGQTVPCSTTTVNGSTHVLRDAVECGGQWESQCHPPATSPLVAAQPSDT
Description: Compounds are tested in the piglet atria spontaneous beating screen (Naunyn-Schmiedeberg's Arch. Pharmacol 342, 619-622).

[5] = tested on: 5-HT-induced gastric motility; assay: 5-HT-induced motility in dog gastric pouch; assay type: in vivo; conditions: for ED50: Canis lupus familiaris, read-out: ID50 (contractile response to 5-HT)
Description: 4) 5-HT-Induced Motility in Dog Gastric Pouch
Compounds are tested for inhibition in the in vivo method described in "Stimulation of canine motility by BRL 24924, a new gastric prokinetic agent", Bermudez et al, J. Gastrointestinal Motility, 1990, 2(4), 281-286.
Dogs with previously prepared Heidenhain gastric pouches are fasted overnight.

5-HT4 receptor [6] = biological target: T1, 5-HT4 receptor; assay: Distension-evoked peristalsis in guinea pig isolated ileum; conditions: 5-HT 10^-7 M
Description: 1) Distension-Evoked Peristalsis in Guinea Pig Isolated Ileum
The oral end was connected to a Krebs-filled reservoir and the aboral end to a vertical column open to the air. The intraluminal filling pressure (oral end) and peristaltic pressure (aboral end) were monitored. The threshold pressure for peristalsis was determined by raising the reservoir at increments of 0.5 cm H2 O at 1 min intervals until peristalsis occurred.

anxiolytic activity = assay: Social interaction test in rats; assay type: in vivo, rat; conditions: 0.01, 1, 10 mg.kg^-1
Description: IN VIVO TESTING FOR ANXIOLYTIC ACTIVITY
Social Interaction Test in Rats
Rats (male, Sprague Dawleys, Charles River, 250-300 g) are housed in groups of eight in a holding room for 5 days. They are then housed singly in a room adjacent to the experimental room for 4 days prior to the experimental day. On the experimental day rats are administered vehicle, test compound or a benzodiazepine anxiolytic, chlordiazepoxide, p.o. in pairs (n=8-16), at 15 minute intervals beginning at 10.00 a.m. […] The box is made of white perspex 54 cm×37 cm×26 cm with a transparent perspex front side and no lid. The floor is divided up into 24 squares and the box is brightly lit (115 lux). Active social interactive behaviours (grooming, sniffing, climbing over or under, following, biting, mounting and boxing) are scored blind for the next 15 min by remote video monitoring to give total interaction scores. The number of squares crossed by each rat is also scored and summed. After the end of each test the box is carefully wiped.

5-HT1D = assay: Receptor binding studies: 5-HT1D
nicotine receptor = assay: Guinea pig colon: DMPP-evoked contraction (nicotinic receptor agonist); conditions: 10^-5 M
Description: as §1

5-HT4 receptor [7] = biological target: T2, 5-HT4 receptor (Rattus norvegicus, UniProt Q62758); assay: Rat oesophagus: relaxation of carbachol-contracted tunica muscularis mucosae
T2 construct: The inner smooth muscle tube of the muscularis mucosae is isolated; from tissue; host or cells: rat oesophageal tunica muscularis mucosae
T2 sequence (Q62758 whole entry): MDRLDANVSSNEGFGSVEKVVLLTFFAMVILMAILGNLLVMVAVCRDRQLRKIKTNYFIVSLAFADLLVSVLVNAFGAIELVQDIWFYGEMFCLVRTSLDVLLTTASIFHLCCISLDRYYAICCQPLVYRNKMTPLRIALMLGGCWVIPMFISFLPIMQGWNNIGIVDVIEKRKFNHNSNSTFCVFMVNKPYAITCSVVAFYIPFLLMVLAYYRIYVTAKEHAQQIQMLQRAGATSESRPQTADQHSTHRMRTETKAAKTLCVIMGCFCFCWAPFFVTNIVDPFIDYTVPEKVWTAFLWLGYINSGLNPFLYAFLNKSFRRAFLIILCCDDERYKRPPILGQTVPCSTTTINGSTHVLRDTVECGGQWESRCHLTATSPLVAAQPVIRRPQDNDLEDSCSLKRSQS
From the text: Rat oesophageal tunica muscularis mucosae is set up according to Baxter et. al. Naunyn-Schmiedeberg's Arch. Pharmacol., 343, 439-446 (1991). […] In contrast to the guinea-pig colon model, where the 5-HT4 receptor is neuronally-located, the receptor here is located on the smooth muscle.

Alpha1 = assay: Receptor binding studies: Alpha1
5-HT4 receptors = assay: Antagonism of 5-HT-evoked tachycardia in anaesthetised piglets; assay type: in vivo, piglet
Description: 5) Antagonism in Anaesthetised Piglets
In these experiments, antagonism is assessed against the 5-HT-evoked tachycardia, a response that is mediated by the 5-HT4 receptors. All experiments were in 2-5 day old piglets in which the vagi were sectioned.

5-HT4 receptor [8] = biological target: T1, 5-HT4 receptor
Description: Male guinea-pigs, weighing 250-400 g are used. Longitudinal muscle-myenteric plexus preparations, approximately 3 cm long, are obtained from the distal colon region. These are suspended under a 0.5 g load in isolated tissue baths containing Krebs solution bubbled with 5% CO2 in O2 and maintained at 37° C. In all experiments, the Krebs solution also contains methiothepin 10^-7 M and granisetron 10^-6 M to block effects at 5-HT1, 5-HT2 and 5-HT3 receptors.

Chain of piglet hippocampal 5-HT4 receptors (Q6Q253 1-402): as the sequence (Q6Q253 1-402) above

NCCc1c[nH]c2ccc(O)cc12 [5-HT, 5-hydroxytryptamine]
pKi [1]: 6.6±0.1

NC(Cc1c[nH]c2ccc(O)cc12)C(=O)O (stereo not shown) [5-HTP, reference compound]
effect of 5-HTP on FPO ([2]; 10 mgkg^-1 s.c.): increased FPO above control levels
time of maximum effect of 5-HTP ([2]; 10 mgkg^-1 s.c.): 20 min
effect of 5-HTP on faecal output ([2]; higher doses than 10 mg kg^-1 s.c.): evoked watery diarrhoea and unformed faecal output

CCCCN1CCC(COC(=O)c2c3n(c4ccccc24)CCCO3)CC1 [E1, (1-^n Butyl-4-piperidyl)methyl-3,4-dihydro-2 H-[1,3]oxazino[3,2-a]indole-10-Carboxylate]
5-HT4 receptor antagonist activity (in words) (5-HT4 receptor [3]; Y is O): particularly good activity

O=C(OCC1CCN2CCCCC2C1)c1c2n(c3ccccc13)CCCO2 (stereo not shown) [E2, eq-Quinolizidin-2-ylmethyl-3,4-dihydro-2 H-[1,3]oxazino[3,2-a]indole-10-Carboxylate]
5-HT4 receptor antagonist activity (in words) (5-HT4 receptor [3]; Y is O): particularly good activity

CCCCN1CCC(CNC(=O)c2c3n(c4ccccc24)CCCO3)CC1 [E3, N-[(1-^n Butyl-4-piperidyl)methyl]-3,4-dihydro-2 H-[1,3]oxazino[3,2-a]indole-10-Carboxamide]
5-HT4 receptor antagonist activity (in words) (5-HT4 receptor [3]; Y is NH): particularly good activity

O=C(OCCN1CCCCC1)c1c2n(c3ccccc13)CCCO2 [E4, 2-(1-Piperidyl)ethyl 3,4-dihydro-2 H-[1,3]oxazino[3,2-a]indole-10-Carboxylate]
5-HT4 receptor antagonist activity (in words) (5-HT4 receptor [3]; Y is O): particularly good activity

CCCCN1CCC(COC(=O)c2c3n(c4ccccc24)CCO3)CC1 [E6, (1-^n Butyl-4-piperidyl)methyl-2,3-dihydrooxazolo[3,2-a]indole-9-Carboxylate]
5-HT4 receptor antagonist activity (in words) (5-HT4 receptor [3]; Y is O): particularly good activity

CCCCN1CCC(COC(=O)c2c3n(c4ccccc24)CCCS3)CC1 [E8, (1-^n Butyl-4-piperidyl)methyl-3,4-dihydro-2 H-[1,3]thiazino[3,2-a]indole-10-Carboxylate]
5-HT4 receptor antagonist activity (in words) (5-HT4 receptor [3]; Y is O): particularly good activity

O=C(OCC1CCN(Cc2ccccc2)CC1)c1c2n(c3ccccc13)CCCO2 [E15, (1-Benzyl-4-piperidyl)methyl-3,4-dihydro-2 H-[1,3]oxazino[3,2-a]indole-10-Carboxylate]
5-HT4 receptor antagonist activity (in words) (5-HT4 receptor [3]; Y is O): particularly good activity

O=C(NCC1CCN(Cc2ccccc2)CC1)c1c2n(c3ccccc13)CCCO2 [E20, N-[(1-Benzyl-4-piperidyl)methy] 3,4-dihydro-2 H-[1,3]oxazino[3,2-a]indole-10-Carboxamide]
5-HT4 receptor antagonist activity (in words) (5-HT4 receptor [3]; Y is NH): particularly good activity

O=C(NCC1CCN(CC2CCCCC2)CC1)c1c2n(c3ccccc13)CCCO2 [E23, N-[(1-Cyclohexylmethyl-4-piperidyl)methyl] 3,4-dihydro-2 H-[1,3]oxazino[3,2-a]indole-10-Carboxamide]
5-HT4 receptor antagonist activity (in words) (5-HT4 receptor [3]; Y is NH): particularly good activity

CCCCN1CCC(COC(=O)c2c3n(c4ccc(F)cc24)CCCO3)CC1 [E27, (1-^n Butyl-4-piperidyl)methyl 8-fluoro-3,4-dihydro-2 H-[1,3]oxazino[3,2-a]indole-10-Carboxylate]
5-HT4 receptor antagonist activity (in words) (5-HT4 receptor [3]; Y is O): particularly good activity

CCCCN1CCC(CNC(=O)c2c3n(c4ccc(F)cc24)CCCO3)CC1 [E28, N-[(1-^n Butyl-4-piperidyl)methyl] 8-fluoro-3,4-dihydro-2 H-[1,3]oxazino[3,2-a]indole-10-Carboxamide]
5-HT4 receptor antagonist activity (in words) (5-HT4 receptor [3]; Y is NH): particularly good activity

O=C(NCC1CCN(CCCOc2ccccc2)CC1)c1c2n(c3ccccc13)CCCO2 [E47, N-[(1-(3-Phenoxypropyl)-4-piperidinyl)methyl] 3,4-dihydro-2 H-[1,3]oxazino[3,2-a]indole-10-Carboxamide]
5-HT4 receptor antagonist activity (in words) (5-HT4 receptor [3]; Y is NH): particularly good activity

CCCCN1CCC(CNC(=O)c2c3n(c4ccccc24)CCCO3)CC1 [SB-207266-A, N-[(1-^n Butyl-4-piperidyl)methyl]-3,4-dihydro-2 H-[1,3]oxazino[3,2-a]indole-10-Carboxamide]
effect on 5-HT curve (5-HT4 receptor [4]; 10^-7 M): shifted the curve to the right with an apparent reduction in the maximum response
estimated pKb (-log10 Kb) (5-HT4 receptor [4]; n=2): 10.1
duration of action (in words) ([5]; 1 and 3 ug.kg^-1 iv): variable and apparently reversible
duration of antagonism ([5]; 10 and 100 ug.kg^-1 iv, longer than the experiment): > 285 min
ED50 ([5]; iv): 1.3 µg/kg
ED50 ([5]; po): 9.6 µg/kg
effect on basal motility ([5]; any dose, iv and po): no effect
preparations in which the sensitising effect of 5-HT was abolished (5-HT4 receptor [6]; 10^-9 M): 3/3
tissues in which the action of 5-HT was antagonised (5-HT4 receptor [6]; 10^-10 M): 3/4
tissues in which there was no ability to antagonise the sensitising effect of 5-HT (5-HT4 receptor [6]; 10^-11 M): 4/4
locomotion during the test (anxiolytic activity): not accompanied by any alteration in locomotion
total interaction scores (anxiolytic activity; 1 h after administration): Significantly increased total interaction scores
pKd (5-HT1D): < 5.00
effect on DMPP-evoked contractions (nicotine receptor): unaffected
duration of action ([2]; 100 ug.kg^-1, dosed 2.5 hours before 5-HTP): effective
duration of action ([2]; 100 ug.kg^-1, pre-dosed 6 hours before 5-HTP): without effect
effect on 5-HTP-evoked increase in FPO ([2]; 0.1 to 10 ug.kg^-1 s.c., 5-HTP 10 mg kg^-1 s.c.): dose-dependently prevented the 5-HTP-evoked increase in FPO
effect on fluid secretion evoked by 5-HTP ([2]; 5-HTP 10 mg kg^-1 s.c.): prevented
effect on watery diarrhoea caused by 5-HTP ([2]; 5-HTP 50 mg.kg^-1): reduce the watery diarrhoea
effect on the effects of 5-HTP, oral ([2]; 10-1000 ug.kg^-1 po, 30 min prior to 5-HTP): greatly reduced the effects of 5-HTP
effect on FPO or fluid content in normal mice ([2]; s.c. or po, not pretreated with 5-HTP): did not affect either FPO or their fluid content in normal mice
antagonism of 5-HT response (in words) (5-HT4 receptor [7]): concentration-dependently acted as a non-surmountable antagonist and reduced the maximum response evoked by 5-HT
Kb (5-HT4 receptor [7]; from data with the lowest effective concentration, no reliable pA2 estimate possible): ≤ 100 pM
pKd (Alpha1): < 5.52
antagonism of 5-HT-evoked tachycardia (5-HT4 receptors; 0.1, 0.3 or 1.0 ugkg^-1 iv, n=2 each): antagonised the 5-HT-evoked tachycardia in a dose-dependent manner
recovery from antagonism (5-HT4 receptors; 0.3, 1.0 ugkg^-1 i.v., over the duration of the experiment): incomplete
Kb (5-HT4 receptor [3]): 39.8 pM
effect on maximum response to 5-HT (5-HT4 receptor [3]; 3×10^-8 M and above): the maximum response to 5-HT was reduced in a concentration-dependent manner
effect on 5-HT concentration-response curve (5-HT4 receptor [3]; 10^-10-10^-8 M, n=6): parallel rightward shift of the 5-HT curve with no effect on the maximum response
slope (pA2) (5-HT4 receptor [3]; 10^-10-10^-8 M, n=6): not significantly different from unity
recovery time of responses to 5-HT (5-HT4 receptor [3]; at the highest concentrations (which reduce maximum 5-HT-evoked contractions), washout): ≤ 90 min
reversibility of antagonism (5-HT4 receptor [3]; upon washout): could be reversed upon washout
pKi [1]: 9.48±0.06
effect on BIMU 1 concentration-response (5-HT4 receptor [8]): reduced the maximum response to BIMU 1, without causing a prior right-ward shift in the concentration-response curve

CCCCN1CCC(COC(=O)c2cc(I)c(N)c3c2OCCO3)CC1 [SB-207710]
Bmax ([1]; piglet hippocampal membranes, n=4): 16±3 fmol/mg protein

CN1C2CCCC1CC(NC(=O)c1nn(C)c3ccccc13)C2 (stereo not shown) [granisetron]
pKi [1]: below 5
